Tests used:
Rattus norvegicus [1] = organism: Rattus norvegicus; test: Compound was tested for the vasorelaxation in rat aorta rings pre-contracted with KCl 60 mM; assay type: functional, organism-based
Rattus norvegicus [2] = organism: Rattus norvegicus; test: Compound was tested for the vasorelaxation in rat aorta rings pre-contracted with noradrenaline (NA) 10 uM; assay type: functional, organism-based
Rattus norvegicus [3] = organism: Rattus norvegicus; test: Effect on concentration dependent contractions in rat aortic rings expressed as pD2 value; assay type: functional, Aorta
Rattus norvegicus [4] = organism: Rattus norvegicus; test: Antagonist PD'2 which is the negative logarithm of the molar concentration of antagonist required to cause 50% depression of the maximal response of the agonist was determined; assay type: functional

Row | SMILES | IC50 (Rattus norvegicus [1]) [µM] | IC50 (Rattus norvegicus [2]) [µM] | pD2 (Rattus norvegicus [3]) | PD'2 (Rattus norvegicus [4])
1 | NC[C@H](O)c1ccc(O)c(O)c1 [NOREPINEPHRINE] |  |  | 6.07 | 
2 | COc1c(O)ccc2c(CO)cc(=O)oc12 | 1010 | 933 |  | 2.57
3 | CC(=O)COc1ccc2c(CO)cc(=O)oc2c1OCC(C)=O | > 1000 | > 1000 |  | 
4 | CCOC(=O)COc1ccc2c(C)c(CCN(CC)CC)c(=O)oc2c1 [CHROMONAR] | > 1000 | > 1000 |  | 

More lines, in order of falling IC50 (Rattus norvegicus [1]), values ahead:

Row | IC50 (Rattus norvegicus [1]) [µM] | IC50 (Rattus norvegicus [2]) [µM] | SMILES | pD2 (Rattus norvegicus [3]) | PD'2 (Rattus norvegicus [4])
5 | 316 | 309 | COc1c2occc2c(OC)c2c(=O)cc(C)oc12 [KHELLIN] |  | 4.46
6 | 93.3 | 52.6 | CC(=O)COc1c2occ(C)c2cc2c(CO)cc(=O)oc12 |  | 
7 | 54 | 68.4 | Cc1coc2cc3oc(=O)cc(CO)c3cc12 |  | 4.73
8 | 42.6 | 42 | COc1c2occ(C)c2cc2c(CO)cc(=O)oc12 |  | 

— ChEMBL document CHEMBL1135963, “Synthesis and vasorelaxant activity of new coumarin and furocoumarin derivatives” (Bioorg Med Chem Lett, 2002)
